Assay results taken from ChEMBL document CHEMBL3860026, “Depsidones from Lichens as Natural Product Inhibitors of M-Phase Phosphoprotein 1, a Human Kinesin Required for Cytokinesis” (J Nat Prod, 2016).
≈ marks a conversion by molar mass, not a printed value. Blank lines part the entries; values can stand above or below the compound they belong to. Calls of active or inactive are those of the source. The calls are words filed in the database; no cut-off is given here.

Legend:
[1] = Half life in mouse liver microsomes at 3 uM by LC-MS/MS method; assay type: ADME
[2] = biological target: T1, Kinesin-like protein KIF20B (Homo sapiens, UniProt Q96Q89); assay: Inhibition of basal ATPase activity of N-terminal His6-tagged/SUMO-fused human MPP1 motor domain (57 to 491 residues) expressed in Escherichia coli BL21 CodonPlus by pyruvate kinase/lactate dehydrogenase-linked assay
T1 sequence (Q96Q89 whole entry, the tested form may be a part): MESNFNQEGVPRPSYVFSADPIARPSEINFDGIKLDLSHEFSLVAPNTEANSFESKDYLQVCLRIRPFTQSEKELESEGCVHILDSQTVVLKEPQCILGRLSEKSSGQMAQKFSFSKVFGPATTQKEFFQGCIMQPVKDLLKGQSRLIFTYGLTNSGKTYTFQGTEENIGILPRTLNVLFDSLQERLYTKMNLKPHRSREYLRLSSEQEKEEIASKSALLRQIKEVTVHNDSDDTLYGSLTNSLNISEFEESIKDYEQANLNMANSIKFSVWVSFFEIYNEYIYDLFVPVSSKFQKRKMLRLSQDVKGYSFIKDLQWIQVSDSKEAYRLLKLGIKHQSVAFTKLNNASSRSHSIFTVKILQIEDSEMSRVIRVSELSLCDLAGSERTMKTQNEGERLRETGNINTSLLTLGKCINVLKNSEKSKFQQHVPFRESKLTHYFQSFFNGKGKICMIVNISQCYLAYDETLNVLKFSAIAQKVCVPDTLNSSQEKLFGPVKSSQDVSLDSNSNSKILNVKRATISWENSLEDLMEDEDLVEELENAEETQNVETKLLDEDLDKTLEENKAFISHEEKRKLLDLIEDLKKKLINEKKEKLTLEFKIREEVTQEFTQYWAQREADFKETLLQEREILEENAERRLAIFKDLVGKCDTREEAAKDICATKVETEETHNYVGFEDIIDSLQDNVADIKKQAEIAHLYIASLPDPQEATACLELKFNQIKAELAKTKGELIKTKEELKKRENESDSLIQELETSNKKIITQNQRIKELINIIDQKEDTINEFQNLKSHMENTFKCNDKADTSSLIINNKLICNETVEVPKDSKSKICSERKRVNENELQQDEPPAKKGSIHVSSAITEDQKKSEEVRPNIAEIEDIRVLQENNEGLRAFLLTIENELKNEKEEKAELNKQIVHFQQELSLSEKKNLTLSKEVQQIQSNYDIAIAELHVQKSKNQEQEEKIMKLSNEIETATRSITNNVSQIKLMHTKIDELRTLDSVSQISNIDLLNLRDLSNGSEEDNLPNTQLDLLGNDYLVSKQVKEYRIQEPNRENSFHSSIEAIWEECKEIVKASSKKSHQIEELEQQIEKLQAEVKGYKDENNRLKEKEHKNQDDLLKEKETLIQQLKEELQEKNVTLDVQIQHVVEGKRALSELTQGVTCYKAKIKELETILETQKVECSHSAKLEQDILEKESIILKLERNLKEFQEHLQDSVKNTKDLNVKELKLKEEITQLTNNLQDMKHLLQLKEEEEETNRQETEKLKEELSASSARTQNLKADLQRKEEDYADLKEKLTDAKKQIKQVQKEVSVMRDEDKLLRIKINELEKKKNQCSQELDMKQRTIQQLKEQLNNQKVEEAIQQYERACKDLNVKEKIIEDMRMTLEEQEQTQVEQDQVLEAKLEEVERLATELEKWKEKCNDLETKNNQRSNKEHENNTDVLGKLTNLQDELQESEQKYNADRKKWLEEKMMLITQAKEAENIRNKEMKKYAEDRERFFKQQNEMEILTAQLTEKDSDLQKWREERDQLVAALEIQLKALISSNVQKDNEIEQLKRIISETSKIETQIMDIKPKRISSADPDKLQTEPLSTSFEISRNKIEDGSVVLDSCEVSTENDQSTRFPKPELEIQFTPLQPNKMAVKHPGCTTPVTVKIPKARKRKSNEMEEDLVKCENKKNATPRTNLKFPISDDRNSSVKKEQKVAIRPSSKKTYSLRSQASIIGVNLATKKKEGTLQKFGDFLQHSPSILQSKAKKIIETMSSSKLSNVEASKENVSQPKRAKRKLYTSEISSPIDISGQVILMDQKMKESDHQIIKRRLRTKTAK

[3] = Efflux ratio of apparent permeability across basolateral to apical over apical to basolateral side in human Caco2 cells at 10 uM after 2 hrs by LC-MS/MS method; assay type: ADME, cell-based; settings: Caco-2
[4] = biological target: T1, Kinesin-like protein KIF20B; assay: Inhibition of basal ATPase activity of N-terminal His6-tagged/SUMO-fused human MPP1 motor domain (57 to 491 residues) expressed in Escherichia coli BL21 CodonPlus in presence of 0.1% Tween-20 by pyruvate kinase/lactate dehydrogenase-linked assay
[5] = Solubility of the compound in phosphate buffered saline at pH 6 after 2 hrs by turbidimetric method; assay type: physicochemical
[6] = Cytotoxicity against human UM-UC-3 cells assessed as growth inhibition after 72 hrs by Alamar Blue assay; assay type: functional, cell-based; settings: UMUC3, 72 h
[7] = biological target: T1, Kinesin-like protein KIF20B; assay: Inhibition of basal ATPase activity of N-terminal His6-tagged/SUMO-fused human MPP1 motor domain (2 to 477 residues) expressed in Escherichia coli BL21 CodonPlus in presence of 0.1% Tween-20 by pyruvate kinase/lactate dehydrogenase-linked assay
[8] = Apparent passive permeability of the compound at 10 uM after 5 hrs by PAMPA; assay type: ADME; settings: PAMPA
[9] = Intrinsic clearance in human liver microsomes assessed per mg of protein at 3 uM after 5 to 60 mins by LC-MS/MS method; assay type: ADME; settings: read-out: CLH
[10] = Intrinsic clearance in mouse liver microsomes assessed per mg of protein at 3 uM after 5 to 60 mins by LC-MS/MS method; assay type: ADME; settings: read-out: CLH
[11] = biological target: T1, Kinesin-like protein KIF20B; assay: Inhibition of microtubule-stimulated ATPase activity of N-terminal His6-tagged/SUMO-fused human MPP1 motor domain (2 to 477 residues) expressed in Escherichia coli BL21 CodonPlus by pyruvate kinase/lactate dehydrogenase-linked assay
[12] = Drug metabolism in human liver microsomes assessed as methyl 2,4-dihydroxy-6-pentanoylbenzoate formation at 3 uM in presence of NADPH after 5 to 45 mins by LC-MS/MS method; assay type: ADME
[13] = n-octanol-buffer distribution co-efficient, log D of the compound at pH 7.4 by shake flask method; assay type: physicochemical
[14] = Cytotoxicity against human K562 cells assessed as growth inhibition after 72 hrs by Alamar Blue assay; assay type: functional, cell-based; settings: K562, 72 h
[15] = Solubility of the compound in phosphate buffered saline at pH 2 after 2 hrs by turbidimetric method; assay type: physicochemical
[16] = biological target: T1, Kinesin-like protein KIF20B; assay: Inhibition of microtubule-stimulated ATPase activity of N-terminal His6-tagged/SUMO-fused human MPP1 motor domain (57 to 491 residues) expressed in Escherichia coli BL21 CodonPlus by pyruvate kinase/lactate dehydrogenase-linked assay
[17] = Passive permeability of the compound assessed as compound recovery at 10 uM after 5 hrs by PAMPA; assay type: ADME; settings: read-out: Drug recovery
[18] = Drug metabolism in human liver microsomes assessed as 3,8-dihydroxy-6-(5-hydroxypentyl)-1-pentanoyl-11H-dibenzo[b,e][1,4]dioxepin-11-one formation at 3 uM in presence of NADPH after 5 to 45 mins by LC-MS/MS method; assay type: ADME
[19] = Cytotoxicity against human J82 cells assessed as growth inhibition after 72 hrs by Alamar Blue assay; assay type: functional, cell-based; settings: J82, 72 h
[20] = Solubility of the compound in phosphate buffered saline at pH 7.4 after 2 hrs by turbidimetric method; assay type: physicochemical
[21] = Half life in human liver microsomes at 3 uM by LC-MS/MS method; assay type: ADME
[22] = Drug metabolism in human liver microsomes assessed as 2-(2,4-dihydroxy-6-pentylphenoxy)-4-hydroxy-6-pentanoylbenzoic acid formation at 3 uM in presence of NADPH after 5 to 45 mins by LC-MS/MS method; assay type: ADME
[23] = Cytotoxicity against human HCT116 cells assessed as growth inhibition after 72 hrs by Alamar Blue assay; assay type: functional, cell-based; settings: HCT-116, 72 h
[24] = Cytotoxicity against human BxPC3 cells assessed as growth inhibition after 72 hrs by Alamar Blue assay; assay type: functional, cell-based; settings: BXPC-3, 72 h
[25] = biological target: T1, Kinesin-like protein KIF20B; assay: Inhibition of basal ATPase activity of N-terminal His6-tagged/SUMO-fused human MPP1 motor domain (2 to 477 residues) expressed in Escherichia coli BL21 CodonPlus by pyruvate kinase/lactate dehydrogenase-linked assay
[26] = Drug level in human liver microsomes treated with norlobaridone at 3 uM in presence of NADPH after 5 to 45 mins by LC-MS/MS method; assay type: ADME

- half-life at 3 µM [1]: 3.1 min
- IC50 [2]: 18.7 µM
- Imax [2]: 75%
- efflux ratio at 2 h, 10 µM [3]: 0.51
- inhibition [4]: Active
- solubility kinetic at 2 h [5]: 3.75 µM (≈ 1.49 µg/mL)
- inhibition [7]: Active
- Papp at 5 h, 10 µM [8]: 324 nm/s
- microsomal CLint at 3 µM [9]: 393 µL/min/mg
- microsomal CLint at 3 µM [10]: 452 µL/min/mg
- IC50 [11]: 7.6 µM
- Imax [11]: 90%
- Drug metabolism [12]: Metabolite_Detected
- logD [13]: 3.5
- solubility kinetic at 2 h [15]: 6.5 µM (≈ 2.59 µg/mL)
- IC50 [16]: 24.4 µM
- Imax [16]: 90%
- recovery at 5 h, 10 µM [17]: 95.1%
- Drug metabolism [18]: Metabolite_Detected
- solubility kinetic at 2 h [20]: 37.5 µM (≈ 14.9 µg/mL)
- half-life at 3 µM [21]: 3.5 min
- Drug metabolism [22]: Metabolite_Detected
- IC50 [25]: 10.8 µM
- Imax [25]: 80%
Structure (SMILES): CCCCCc1cc(O)cc2c1Oc1cc(O)cc(C(=O)CCCC)c1C(=O)O2
- EC50 [6]: 30.5 µM
- EC50 [14]: 43.7 µM
- EC50 [19]: 48.3 µM
- EC50 [23]: 42.9 µM
- EC50 [24]: 33.1 µM

- Drug metabolism [26]: Metabolite_Detected
Structure (SMILES): CCCCC(=O)c1cc(O)cc(O)c1C(=O)OC

- Drug metabolism [26]: Metabolite_Detected
Structure (SMILES): CCCCC(=O)c1cc(O)cc2c1C(=O)Oc1cc(O)cc(CCCCCO)c1O2

- Drug metabolism [26]: Metabolite_Detected
Structure (SMILES): CCCCCc1cc(O)cc(O)c1Oc1cc(O)cc(C(=O)CCCC)c1C(=O)O

Structure (SMILES): CCCCCc1c2c(cc(O)c1C(=O)O)OC(=O)c1c(cc(OC)cc1C(=O)CCCC)O2 [LOBARIC ACID]
- EC50 [6]: 3.7 µM
- EC50 [14]: 1.4 µM
- EC50 [19]: 3.6 µM
- EC50 [23]: 0.8 µM
- EC50 [24]: 1.6 µM

Structure (SMILES): Cc1cc(O)cc2c1C(=O)Oc1cc3c(c(O)c1O2)C(=O)OC3 [VARIOLARIC ACID]
- EC50 [6]: > 100 µM
- EC50 [14]: > 100 µM
- EC50 [19]: > 50 µM
- EC50 [23]: > 100 µM
